Experimental data taken from patent publication US20130197080A1, “USE OF TERIFLUNOMIDE FOR TREATING MULTIPLE SCLEROSIS” (SANOFI, priority 2010, published 2013).

Test system: patients with RMS
Test: TEMSO Phase III trial: MRI outcomes
Format: in vivo, humans
Conditions: 108 weeks; for Brain parenchymal fraction, LS mean change from baseline / Brain parenchymal fraction, LS mean difference vs placebo / Brain parenchymal fraction, Relative reduction vs placebo: MMRM; for Number of Gd-enhancing T1 lesions per scan, Estimate / Number of unique active lesions per scan, Estimate: Poisson regression
Experimental: A treatment neurologist at each site was responsible for evaluating patient eligibility, supervision of study medication administration, recording and treating adverse events and assessing relapses, and monitoring safety assessments. An independent examining neurologist, blinded to treatment assignment, performed all EDSS scores and functional system assessments. EDSS scores were determined at screening, baseline, every 12 weeks following baseline visit, and at unscheduled relapse visits. MRI scans were performed at baseline and Weeks 24, 48, 72 and 108, and conducted according to the study protocol; image data were collected at clinical site MRI facilities.
The key secondary endpoint was to determine the effect of teriflunomide on delaying disability progression at Week 108 as assessed by changes in EDSS. Sustained disability progression was defined as a persisting increase from baseline of at least 1.0 point on the EDSS (or at least 0.5 for patients with a baseline EDSS score greater than 5.5) for at least 12 weeks. The key prespecified MRI endpoint was the effect of teriflunomide on burden of disease (total lesion volume). Other MRI endpoints included number of gadolinium (Gd)-enhancing T1 lesions, volume of T1 hypointense lesion components (‘black holes’), number of unique active lesions and brain atrophy. Patient-reported fatigue, assessed by the Fatigue Impact Scale (FIS), was an additional secondary endpoint.
Change from baseline in burden of disease and T1 hypointense lesion volume were analysed with a mixed-effect model with repeated measures (MMRM) using cubic root transformed data. Atrophy was analysed as change from baseline brain volume with the MMRM. The number of Gd-enhancing T1 lesions and number of unique active lesions per scan were analysed using a Poisson regression model with robust error variance. The percentage of patients free from lesions was analysed using a logistic regression model. MRI scans obtained within 14 days of systemic corticosteroid therapy were excluded from all analyses.
The MMRM model (mixed-effect model with repeated measures) included treatment, EDSS strata, region, visit, treatment-by-visit interaction, baseline value and baseline-by-visit interaction as covariates. The percentage of patients free from lesions was analysed by a logistic regression model that included treatment, number of lesions at baseline, EDSS strata and region as covariates. The Poisson regression model included treatment, number of lesions at baseline, EDSS strata and region as covariates, and log-transformed number of scans as an offset variable. The change from baseline in fatigue impact scale (FIS) total score was analyzed using MMRM.

[1] = 7 mg once daily oral vs placebo
[2] = 7 mg once daily oral, ITT population
[3] = 7 mg once daily oral, MMRM using cubic root transformed volume data
[4] = 14 mg once daily oral vs placebo
[5] = 14 mg once daily oral, ITT population
[6] = 14 mg once daily oral, MMRM using cubic root transformed volume data

## C/C(O)=C(\C#N)C(=O)Nc1ccc(C(F)(F)F)cc1 [teriflunomide, (Z)-2-cyano-3-hydroxy-but-2-enoic acid-(4′-trifluoromethylphenyl)-amide]
7 mg and 14 mg groups
  brain atrophy from baseline vs placebo: No significant differences
[1]
  Number of Gd-enhancing T1 lesions per scan, Relative risk: 0.428
  Number of unique active lesions per scan, Relative risk: 0.523
7 mg once daily oral
  Number of Gd-enhancing T1 lesions per scan, Relative reduction vs placebo: 57.2%
  Number of unique active lesions per scan, Relative reduction vs placebo: 47.7%
  Brain parenchymal fraction, LS mean change from baseline: −0.003
  Brain parenchymal fraction, LS mean difference vs placebo: 0.001
  Brain parenchymal fraction, Relative reduction vs placebo: 25.0%
[2]
  Burden of disease, Mean change from baseline: 1.308 mL
  Proportion of patients free from Gd-enhancing T1 lesions, %: (51.4) %
  T1 hypointense lesion volume, Mean change from baseline: 0.499 mL
  Number of Gd-enhancing T1 lesions per scan, Estimate: 0.570
  Number of unique active lesions per scan, Estimate: 1.288
[3]
  Burden of disease, LS mean change from baseline: 0.080 mL
  Burden of disease, LS mean difference vs placebo: -0.053 mL
  Burden of disease, Relative reduction vs placebo: 39.4%
  T1 hypointense lesion volume, LS mean change from baseline: 0.079 mL
  T1 hypointense lesion volume, LS mean difference vs placebo: -0.016 mL
  T1 hypointense lesion volume, Relative reduction vs placebo: 16.7%
[4]
  Number of Gd-enhancing T1 lesions per scan, Relative risk: 0.196
  Number of unique active lesions per scan, Relative risk: 0.306
[5]
  Burden of disease, Mean change from baseline: 0.723 mL
  T1 hypointense lesion volume, Mean change from baseline: 0.331 mL
  Number of Gd-enhancing T1 lesions per scan, Estimate: 0.261
  Number of unique active lesions per scan, Estimate: 0.754
14 mg once daily oral
  Brain parenchymal fraction, LS mean change from baseline: −0.003
  Brain parenchymal fraction, LS mean difference vs placebo: 0.001
  Brain parenchymal fraction, Relative reduction vs placebo: 25.0%
[6]
  Burden of disease, LS mean change from baseline: 0.043 mL
  Burden of disease, LS mean difference vs placebo: -0.089 mL
  T1 hypointense lesion volume, LS mean change from baseline: 0.066 mL
  T1 hypointense lesion volume, LS mean difference vs placebo: -0.030 mL
